Experimental data published in patent publication US12310975B2, “Modulators of BCL6 proteolysis and associated methods of use” (Arvinas Operations, Inc., priority 2019, dated 2025).

Target: BCL6 (Homo sapiens (Human), UniProt P41182)
Test: Immunofluorescence high content imaging of BCL6 degradation in T47D cells
Format: cell-based
Details: for Dmax: T47D
Procedure, shortened: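 T47D, 3 d compound exposure, 11-pt 3-fold series, top 0.1 or 1 μM final. Fix 4% PFA, Triton permeabilize, anti-BCL6 primary overnight 4 °C, Alexa-488 secondary. High-content imaging 10×, 4 fields/well, top-hat smoothing.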

Row | IC50 | Dmax | Structure (SMILES)
1 | 50 to 100 nM | 50 to 70% | CNC(=O)COc1cc2cc(Nc3nc(N4CCC(CN5[C@H](C)CN(c6ccc(C(=O)NC7CCC(=O)NC7=O)c(F)c6)C[C@@H]5C)CC4)ncc3Cl)ccc2n(C)c1=O (stereo partly drawn) [compound 288, 4-[(3R,5S)-4-({1-[5-chloro-4-({1-methyl-3-[(methylcarbamoyl)methoxy]-2-oxo-1,2-dihydroquinolin-6-yl}amino)pyrimidin-2-yl]piperidin-4-yl}methyl)-3,5-dimethylpiperazin-1-yl]-N-(2,6-dioxopiperidin-3-yl)-2-fluorobenzamide]
2 | < 10 nM | 50 to 70% | CCn1c(=O)c(OCC(=O)NC)cc2cc(Nc3nc(N4CCC(OC5CCN(c6cccc7c6C(=O)N(C6CCC(=O)NC6=O)C7=O)CC5)CC4)ncc3Cl)ccc21 (centres unmarked) [compound 292, 2-{[6-({5-chloro-2-[4-({1-[2-(2,6-dioxopiperidin-3-yl)-1,3-dioxo-2,3-dihydro-1H-isoindol-4-yl]piperidin-4-yl}oxy)piperidin-1-yl]pyrimidin-4-yl}amino)-1-ethyl-2-oxo-1,2-dihydroquinolin-3-yl]oxy}-N-methylacetamide]
3 | 50 to 100 nM | < 50% | CCn1c(=O)c(OCC(=O)NC)cc2cc(Nc3nc(N4CCO[C@H](COc5ccc6c(c5)C(=O)N(C5CCC(=O)NC5=O)C6=O)C4)ncc3Cl)ccc21 (stereo partly drawn) [compound 294, 2-{[6-({5-chloro-2-[(2S)-2-({[2-(2,6-dioxopiperidin-3-yl)-1,3-dioxo-2,3-dihydro-1H-isoindol-5-yl]oxy}methyl)morpholin-4-yl]pyrimidin-4-yl}amino)-1-ethyl-2-oxo-1,2-dihydroquinolin-3-yl]oxy}-N-methylacetamide]
4 | < 10 nM | 50 to 70% | CCn1c(=O)c(OCC(=O)NC)cc2cc(Nc3nc(N4CCN(CC5CCN(c6cccc(C(=O)NC7CCC(=O)NC7=O)c6F)CC5)CC4)ncc3Cl)ccc21 (centres unmarked) [compound 295, 3-[4-({4-[5-chloro-4-({1-ethyl-3-[(methylcarbamoyl)methoxy]-2-oxo-1,2-dihydroquinolin-6-yl}amino)pyrimidin-2-yl]piperazin-1-yl}methyl)piperidin-1-yl]-N-(2,6-dioxopiperidin-3-yl)-2-fluorobenzamide]
5 | < 10 nM | ≥ 70% | CNC(=O)COc1cc2cc(Nc3nc(N4CCN(CC5CCN(c6cccc(C(=O)NC7CCC(=O)NC7=O)c6F)CC5)CC4)ncc3Cl)ccc2n(C(C)C)c1=O (centres unmarked) [compound 296, 3-[4-({4-[5-chloro-4-({3-[(methylcarbamoyl)methoxy]-2-oxo-1-(propan-2-yl)-1,2-dihydroquinolin-6-yl}amino)pyrimidin-2-yl]piperazin-1-yl}methyl)piperidin-1-yl]-N-(2,6-dioxopiperidin-3-yl)-2-fluorobenzamide]
6 | < 10 nM | < 50% | CNC(=O)COc1cc2cc(Nc3nc(N4CCN(CC5CCN(c6ccc7c(c6)C(=O)N(C6CCC(=O)NC6=O)C7=O)CC5)CC4)c(C#N)cc3Cl)ccc2n(C)c1=O (centres unmarked) [compound 297, 2-{[6-({3-chloro-5-cyano-6-[4-({1-[2-(2,6-dioxopiperidin-3-yl)-1,3-dioxo-2,3-dihydro-1H-isoindol-5-yl]piperidin-4-yl}methyl)piperazin-1-yl]pyridin-2-yl}amino)-1-methyl-2-oxo-1,2-dihydroquinolin-3-yl]oxy}-N-methylacetamide]
7 | < 10 nM | 50 to 70% | CCn1c(=O)c(OCC(=O)NC)cc2cc(Nc3nc(N4CCC(CN5CC6(C5)CN(c5ccc7c(c5)C(=O)N(C5CCC(=O)NC5=O)C7=O)C6)CC4)ncc3Cl)ccc21 (centres unmarked) [compound 298, 2-{[6-({5-chloro-2-[4-({6-[2-(2,6-dioxopiperidin-3-yl)-1,3-dioxo-2,3-dihydro-1H-isoindol-5-yl]-2,6-diazaspiro[3.3]heptan-2-yl}methyl)piperidin-1-yl]pyrimidin-4-yl}amino)-1-ethyl-2-oxo-1,2-dihydroquinolin-3-yl]oxy}-N-methylacetamide]
8 | < 10 nM | 50 to 70% | CCn1c(=O)c(OCC(=O)NC)cc2cc(Nc3nc(N4CCC(OC5CC6(C5)CN(c5ccc7c(c5)C(=O)N(C5CCC(=O)NC5=O)C7=O)C6)CC4)ncc3Cl)ccc21 (centres unmarked) [compound 303, 2-{[6-({5-chloro-2-[4-({2-[2-(2,6-dioxopiperidin-3-yl)-1,3-dioxo-2,3-dihydro-1H-isoindol-5-yl]-2-azaspiro[3.3]heptan-6-yl}oxy)piperidin-1-yl]pyrimidin-4-yl}amino)-1-ethyl-2-oxo-1,2-dihydroquinolin-3-yl]oxy}-N-methylacetamide]
9 | < 10 nM | 50 to 70% | CNC(=O)COc1cc2cc(Nc3nc(N4CCN(C(C)(C)C5CCN(c6cccc7c6C(=O)N(C6CCC(=O)NC6=O)C7=O)CC5)CC4)ncc3Cl)ccc2n(C(C)C)c1=O (centres unmarked) [compound 307, 2-{[6-({5-chloro-2-[4-(2-{1-[2-(2,6-dioxopiperidin-3-yl)-1,3-dioxo-2,3-dihydro-1H-isoindol-4-yl]piperidin-4-yl}propan-2-yl)piperazin-1-yl]pyrimidin-4-yl}amino)-2-oxo-1-(propan-2-yl)-1,2-dihydroquinolin-3-yl]oxy}-N-methylacetamide]

The remaining lines, values behind:

Row | Structure (SMILES) | IC50 | Dmax
10 | CNC(=O)CCC1Oc2cc(Nc3nc(N4CCN(C(C)(C)C5CCN(c6ccc7c(c6)C(=O)N(C6CCC(=O)NC6=O)C7=O)CC5)CC4)ncc3Cl)ccc2N(C)C1=O (centres unmarked) [compound 287, 3-[7-({5-chloro-2-[4-(2-{1-[2-(2,6-dioxopiperidin-3-yl)-1,3-dioxo-2,3-dihydro-1H-isoindol-5-yl]piperidin-4-yl}propan-2-yl)piperazin-1-yl]pyrimidin-4-yl}amino)-4-methyl-3-oxo-3,4-dihydro-2H-1,4-benzoxazin-2-yl]-N-methylpropanamide] | ≥ 100 nM | –
11 | CNC(=O)COc1cc2cc(Nc3nc(N4CCC(CN5CCC(c6ccc7c(c6)C(=O)N(C6CCC(=O)NC6=O)C7=O)CC5)CC4)ncc3Cl)ccc2n(C)c1=O (centres unmarked) [compound 289, 2-{[6-({5-chloro-2-[4-({4-[2-(2,6-dioxopiperidin-3-yl)-1,3-dioxo-2,3-dihydro-1H-isoindol-5-yl]piperidin-1-yl}methyl)piperidin-1-yl]pyrimidin-4-yl}amino)-1-methyl-2-oxo-1,2-dihydroquinolin-3-yl]oxy}-N-methylacetamide] | 10 to 50 nM | ≥ 70%
12 | CNC(=O)COc1cc2cc(Nc3nc(N4CCN(C(C)(C)C5CCN(c6cccc(C(=O)NC7CCC(=O)NC7=O)c6F)CC5)CC4)ncc3Cl)ccc2n(C)c1=O (centres unmarked) [compound 291, 3-[4-(2-{4-[5-chloro-4-({1-methyl-3-[(methylcarbamoyl)methoxy]-2-oxo-1,2-dihydroquinolin-6-yl}amino)pyrimidin-2-yl]piperazin-1-yl}propan-2-yl)piperidin-1-yl]-N-(2,6-dioxopiperidin-3-yl)-2-fluorobenzamide] | 10 to 50 nM | ≥ 70%
13 | CNC(=O)COc1cc2cc(Nc3nc(N4CCC(OC5CCN(c6cccc7c6C(=O)N(C6CCC(=O)NC6=O)C7=O)CC5)CC4)ncc3Cl)ccc2n(C(C)C)c1=O (centres unmarked) [compound 293, 2-{[6-({5-chloro-2-[4-({1-[2-(2,6-dioxopiperidin-3-yl)-1,3-dioxo-2,3-dihydro-1H-isoindol-4-yl]piperidin-4-yl}oxy)piperidin-1-yl]pyrimidin-4-yl}amino)-2-oxo-1-(propan-2-yl)-1,2-dihydroquinolin-3-yl]oxy}-N-methylacetamide] | 10 to 50 nM | 50 to 70%
14 | CNC(=O)COc1cc2cc(Nc3nc(N4CCN(C(C)(C)C5CCN(c6ccc7c(c6)C(=O)N(C6CCC(=O)NC6=O)C7=O)CC5)CC4)ncc3Cl)ccc2n(C(C)C)c1=O (centres unmarked) [compound 299, 2-{[6-({5-chloro-2-[4-(2-{1-[2-(2,6-dioxopiperidin-3-yl)-1,3-dioxo-2,3-dihydro-1H-isoindol-5-yl]piperidin-4-yl}propan-2-yl)piperazin-1-yl]pyrimidin-4-yl}amino)-2-oxo-1-(propan-2-yl)-1,2-dihydroquinolin-3-yl]oxy}-N-methylacetamide] | 10 to 50 nM | ≥ 70%
15 | CCn1c(=O)c(OCC(=O)NC)cc2cc(Nc3cc(N4CCN(C(C)(C)C5CCN(c6ccc7c(c6)C(=O)N(C6CCC(=O)NC6=O)C7=O)CC5)CC4)ncc3Cl)ccc21 (centres unmarked) [compound 300, 2-{[6-({5-chloro-2-[4-(2-{1-[2-(2,6-dioxopiperidin-3-yl)-1,3-dioxo-2,3-dihydro-1H-isoindol-5-yl]piperidin-4-yl}propan-2-yl)piperazin-1-yl]pyridin-4-yl}amino)-1-ethyl-2-oxo-1,2-dihydroquinolin-3-yl]oxy}-N-methylacetamide] | < 10 nM | 50 to 70%
16 | CCn1c(=O)c(OCC(=O)NC)cc2cc(Nc3nc(N4CCN(CC5CN(C6CN(c7ccc8c(c7)C(=O)N(C7CCC(=O)NC7=O)C8=O)C6)C5)CC4)ncc3Cl)ccc21 (centres unmarked) [compound 302, 2-{[6-({5-chloro-2-[4-({1′-[2-(2,6-dioxopiperidin-3-yl)-1,3-dioxo-2,3-dihydro-1H-isoindol-5-yl]-[1,3′-biazetidin]-3-yl}methyl)piperazin-1-yl]pyrimidin-4-yl}amino)-1-ethyl-2-oxo-1,2-dihydroquinolin-3-yl]oxy}-N-methylacetamide] | 10 to 50 nM | < 50%
17 | CCn1c(=O)c(OCC(=O)NC)cc2cc(Nc3nc(N4CCN(C(C)(C)C5CCN(c6ccc7c(c6)C(=O)N(C6CCC(=O)NC6=O)C7=O)CC5)CC4)ncc3Cl)ccc21 (centres unmarked) [compound 304, 2-{[6-({5-chloro-2-[4-(2-{1-[2-(2,6-dioxopiperidin-3-yl)-1,3-dioxo-2,3-dihydro-1H-isoindol-5-yl]piperidin-4-yl}propan-2-yl)piperazin-1-yl]pyrimidin-4-yl}amino)-1-ethyl-2-oxo-1,2-dihydroquinolin-3-yl]oxy}-N-methylacetamide] | < 10 nM | ≥ 70%
18 | CNC(=O)COc1cc2cc(Nc3nc(N4CCC(CN5CC6(C5)CN(c5ccc7c(c5)C(=O)N(C5CCC(=O)NC5=O)C7=O)C6)CC4)ncc3Cl)ccc2n(C(C)C)c1=O (centres unmarked) [compound 306, 2-{[6-({5-chloro-2-[4-({6-[2-(2,6-dioxopiperidin-3-yl)-1,3-dioxo-2,3-dihydro-1H-isoindol-5-yl]-2,6-diazaspiro[3.3]heptan-2-yl}methyl)piperidin-1-yl]pyrimidin-4-yl}amino)-2-oxo-1-(propan-2-yl)-1,2-dihydroquinolin-3-yl]oxy}-N-methylacetamide] | < 10 nM | ≥ 70%
